According to PMC12392461, “Beyond Estrogenicity: A Comparative Assessment of Bisphenol A and Its Alternatives in In Vitro Assays Questions Safety of Replacements” (Environmental Science & Technology, 2025):
Entries after “also recorded” stand apart in the source; their conditions may differ. Read-outs that look alike come from different tables or passages of the source.

Columns and labels:
[1] = Stability in PBS (pH 7.4, 37 °C, 48 h)
Description: We tested the stability of all BPA alternatives and BPA in 0.1mM PBS (pH 7.4) for 48h at 37° C except for TMCD prior to the bioassay experiments. The experiment was performed as follows: 500 µL of a 2 mg/L solution of the chemical in PBS was aliquoted into 3 HPLC vials (n=3) and incubated for 48 h at 37 °C. The 2 mg/L solution was prepared by diluting the respective 10 g/L stock solution in a 10 mL glass crimp vial with an aluminum cap. For HPLC analysis, 500 µL acetonitrile was added prior to injection.
We have not tested stability of TMCD in aqueous media because we lacked a suitable […]
Figure S2: Detection of Bisphenol alternatives after 48 h incubation in 0.1mM PBS pH 7.4. Each data point represents the mean percentage with error bars indicating standard error of mean (SEM) of n=3 replicates.
S2: Cell culture and bioassays
S2.1: Cell Culturing Conditions
All suppliers and sources are given in detail in SI-Excel S3. The bioassay media for the different assays were prepared as follows: Assay medium for ER alpha-UAS-bla GripTite (ERα) and PPAR gamma-UAS-bla 293H (PPARγ) was prepared with 98% Opti-MEM, supplemented with 2% charcoal-stripped FBS, and 100 U/mL penicillin-streptomycin. MitoOxTox and AhR assay medium was comprised of 90% DMEM with GlutaMAX, supplemented with 10% FBS, and 100 U/mL penicillin-streptomycin. Neurotoxicity assay medium consisted of the neurobasal […]

ERα = test: Literature ERα reporter gene assays (comparison); format: cell-based; settings: for EC10, approx.: in M (unit assumed)
Description: S5.4: Comparison with literature data for ERα reporter gene assays
To improve data comparability with our own results we converted reported EC₅₀ to EC₁₀ by dividing by 9, which is the ratio for log-logistic concentration-response curves with a hillslope of 1 (Figure S9a). Additionally, REPBPA values were calculated to enable a more consistent evaluation. Methodological differences between studies must be considered, as Reiniger et al.24 used the YES assay, while Goksøyr et al.25 applied ERα from fish (Figure S9b).
Cyan symbols highlight the ER-UAS-bla GripTite (this study and Tox21GenBLA).
(1 picture or pasted object on this page, not shown here)

[2] = cited from earlier work
neuronal stem cells = settings: ref Liang et al.; cited from earlier work
[3] = parameters: method as in Soto et al.; settings: ref Soto et al.; cited from earlier work
MCF-7 cells = tested on: MCF-7 cells; parameters: method as in Singh et al. 2024; settings: ref Singh et al. 2024; cited from earlier work
[4] = Atlantic cod estrogen receptor, approximated from literature EC50, ref Goksøyr et al 2024
[5] = Atlantic cod estrogen receptor, ref Goksøyr et al 2024
[6] = approximated from literature EC50, ref Pelch et al 2019
[7] = approximated from literature EC50, ref Reiniger et Oehlmann 2024
[8] = approximated from literature values, ref Kojima et al 2019
[9] = relative estrogenic potency vs BPA, ref Kojima et al 2019
[10] = relative estrogenic potency vs BPA, ref Pelch et al 2019
[11] = relative estrogenic potency vs BPA, ref Reiniger et Oehlmann 2024
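For SRbaseline in this document: published Tox21 results reanalysed with a revised model predicting baseline toxicity.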

Description for Tox21 assays: We also reanalyzed the Tox21 data of Adamovsky et al. with the updated baseline toxicity prediction model (Table S2).

Structure (SMILES) | EC10, approx. (ERα; [4]) | REPBPA (ERα; [5]) | EC10, approx. (ERα; [6]) | EC10, approx. (ERα; [7]) | EC10, approx. (ERα; [8]) | REPBPA (ERα; [9]) | REPBPA (ERα; [10]) | REPBPA (ERα; [11]) | further results
CC(C)(c1ccc(OCC2CO2)cc1)c1ccc(OCC2CO2)cc1 (stereo not drawn) [BADGE, Bisphenol A diglycidyl ether] | – | – | – | – | – | – | – | – | stability in phosphate-buffered saline [1]: unstable in aqueous solution; also recorded: lower parent concentration and potential contributions from hydrolysis products
CC(C)(c1ccc(O)cc1)c1ccc(O)cc1 [BPA, 4,4'-(Propane-2,2-diyl)diphenol, reference compound] | ~2.11E-07 | 1.00E+00 | ~1.33E-07 | ~2.51E-07 | ~3.65E-08 | 1.00E+00 | 1.00E+00 | 1.00E+00 | log (KBSAw /(Lw/Lprotein)) (neutral species) ([2]; exp. + log(1.36 kg/L), ref Endo and Goss 2011): 3.57; predicted or literature experimental log Kow ([2]; ref Hansch, 1995): 3.32; log D lipw ([2]; pH 7.4, ref Kwon et al. 2006): 3.65; log (DBSAw /(Lw/Lprotein) (pH7.4)) ([2]; ref Endo and Goss 2011): 3.01; log (KBSAw /(Lw/kgprotein)) (neutral species) ([2]; ref Endo and Goss 2011): 3.44; log (Dlipw/(Lwater/kglipid) or (Lwater/Llipid)) (pH 7.4) ([2]; ref Kwon et al. 2006): 3.65; concentration with significant reduction in average neurite length (neuronal stem cells): 1 nM
Oc1ccc(C(c2ccc(O)cc2)(C(F)(F)F)C(F)(F)F)cc1 [BPAF, 4,4'-(1,1,1,3,3,3-Hexafluoropropane-2,2-diyl)diphenol] | ~2.56E-08 | 8.26E+00 | ~1.44E-08 | ~4.82E-08 | ~4.30E-08 | 8.49E-01 | 9.23E+00 | 5.21E+00 | –
CC(c1ccccc1)(c1ccc(O)cc1)c1ccc(O)cc1 [BPAP, 4,4'-(1-Phenylethylidene)bisphenol] | – | – | – | ~1.04E-07 | ~1.45E-07 | 2.52E-01 | – | – | –
CCC(C)(c1ccc(O)cc1)c1ccc(O)cc1 [BPB, 4,4'-(Butane-2,2-diyl)diphenol] | ~1.78E-07 | 1.19E+00 | ~3.56E-08 | ~1.87E-07 | ~1.15E-08 | 3.17E+00 | 3.75E+00 | 1.35E+00 | –
Oc1ccc(Cc2ccc(O)cc2)cc1 [BPF, Bis(4-hydroxyphenyl)methane] | ~4.22E-07 | 5.00E-01 | ~1.78E-07 | ~2.82E-07 | ~5.50E-08 | 6.64E-01 | 7.50E-01 | 8.90E-01 | predicted or literature experimental log Kow ([2]; ref Hansch, 1995): 2.91; concentration with significant reduction in average neurite length (neuronal stem cells): 1 nM
O=S(=O)(c1ccc(O)cc1)c1ccc(O)cc1 [BPS, 4,4'-Sulfonyldiphenol] | ~9.26E-06 | 2.28E-02 | ~1.44E-07 | ~7.13E-09 | ~8.50E-07 | 4.29E-02 | 9.23E-01 | 3.52E+01 | concentration with significant reduction in average neurite length (neuronal stem cells): 1 nM
Oc1ccc(Sc2ccc(O)cc2)cc1 [BPT, 4,4'-Thiodiphenol] | – | – | – | – | – | – | – | – | predicted or literature experimental log Kow ([2]; ref Hansch, 1995): 3.34
O=C(OCc1ccccc1)c1ccc(O)cc1 [BzPB, Benzyl 4-hydroxybenzoate] | – | – | – | – | – | – | – | – | predicted or literature experimental log Kow ([2]; ref Lehner 1993): 3.56
CC(C)(c1cc(Br)c(O)c(Br)c1)c1cc(Br)c(O)c(Br)c1 [TBBPA, 3,3',5,5'-Tetrabromobisphenol A] | – | – | – | – | – | – | – | – | REPBPA (Tox21 assays): 29.73; SRbaseline (Tox21 assays): 90.68; REPBPA (Tox21 assays; ATG_PPARg_TRANS_up, Relative Effect Potency): 3.44; SRbaseline (Tox21 assays; ATG_PPARg_TRANS_up, Specificity Ratio): 12.11; REPBPA (Tox21 assays; ATG_hPPARg_XSP1_up, Relative Effect Potency): 2.58; SRbaseline (Tox21 assays; ATG_hPPARg_XSP1_up, Specificity Ratio): 11.21; REPBPA (Tox21 assays; ATG_hPPARg_XSP2_up, Relative Effect Potency): 6.45; SRbaseline (Tox21 assays; ATG_hPPARg_XSP2_up, Specificity Ratio): 28.04
Cc1cc(Cc2cc(C)c(O)c(C)c2)cc(C)c1O [TMBPF, Bis(3,5-dimethyl-4-hydroxyphenyl)methane] | – | – | – | – | – | – | – | – | estrogenicity in vivo [3]: nonestrogenic in vivo; estrogenicity in MCF-7 cells (MCF-7 cells): inactive in estrogenicity assays using MCF-7 cells
